Laboratory results reported in patent US10363239B2, “Method for inhibiting growth of cancer cells” (Pain Therapeutics, Inc., priority 2013, dated 2019).

Tests used:
[1] = test system: pS2448mTOR, pS473Akt, pY/pT-ERK2 in melanoma cells; experiment: Activated (phosphorylated) mTOR, Akt and ERK2 levels (immunoprecipitation, Western blotting); assay type: cell-based, human; settings: 0.1-5 nM; 4 days
Procedure: (§1) FIG. 11A through FIG. 11C illustrate the effect of contact with Compound C0105 on the levels of activated (phosphorylated) mTOR (pS^2448mTOR), Akt (pS^473Akt) and ERK2 (pY/pT-ERK2) in melanoma cells. Cells were treated with vehicle and 0.1-5 nM Compound C0105 for 4 days. Cells were washed, solubilized and the resultant cell lysate was immunoprecipitated with anti-mTOR, -Akt or -ERK2. The levels of pS^2448mTOR, pS^473Akt, pY/pTERK2 in the respective anti-mTOR, -Akt, and -ERK2 immunoprecipitates were determined by Western blotting. The density of protein bands was measured by densitometric scanning. […] N=4. *p<0.01 compared to vehicle (open bars). […]
(§2) The cell lysates were diluted 5-fold with immunoprecipitation buffer and immunoprecipitated with anti-FLNA, -Akt, -mTOR and -ERK2 as described previously [Talbot et al., J Clin Inv 122(4):1-23 (2012); Wang et al., J Neurosci 32(29):9773-9784 (2012)]. The levels of FLNA linkages, activated phosphorylated Akt (pS^473 and pT^308), phosphorylated mTOR (pS^2448) and phosphorylated ERK2 (pY/pT) were determined in anti-FLNA, -Akt, -mTOR and -ERK2 immunoprecipitates by Western blotting with appropriate antibodies directed against PTEN, PP2A, K-RAS, ras-GAP (FLNA linkages), pS^473Akt, pT^308Akt, pS^2448mTOR and pY/pT ERK2 (activation of Akt, mTOR and ERK2).

[2] = test system: pS2152FLNA, FLNA-associated PTEN and PP2A in glioblastoma cells; experiment: pS2152FLNA and FLNA-associated PTEN and PP2A in anti-FLNA immunoprecipitate (Western blotting); assay type: cell-based, human; settings: 0.1-5 nM; 4 days
Procedure: (§3) The effect of Compound C0105 on the levels of pS^2152FLNA and FLNA-associated phosphatases, PTEN and PP2A subclasses was determined in glioblastoma cells. Cells were treated with vehicle and 0.1-5 nM Compound C0105 for 4 days. Cells were washed and solubilized, and the resultant cell lysate was immunoprecipitated with anti-FLNA. The levels of pS^2152FLNA and FLNA-associated phosphatases, PTEN and PP2A subclasses in the anti-FLNA immunoprecipitate were determined by Western blotting. The density of protein bands was quantified by densitometric scan. […] N=4. **p<0.05, *p<0.01 compared to vehicle (open bars). […]
as §2

[3] = test system: pS2152FLNA, FLNA-associated PTEN and PP2A in pancreatic cancer MiaPaCa2 cells; experiment: as above; assay type: cell-based, human; settings: 0.1-5 nM; 4 days
Procedure: The effect of contact with Compound C0105 on the levels of pS^2152FLNA and FLNA-associated phosphatases, PTEN and PP2A subclasses was determined in MiaPaCa2 and HPECs. Cells were contacted with vehicle and 0.1-5 nM Compound C0105 for 4 days. Cells were washed, solubilized and the cell lysate derived was immunoprecipitated with anti-FLNA. The levels of […] and FLNA-associated phosphatases, PTEN and PP2A subclasses in the anti-FLNA immunoprecipitate were determined by Western blotting. The density of protein bands was quantified by densitometric scan. […] Data are expressed as mean±S.E.M. of ratios (FIGS. 27C, 27E and 27G) and percentage inhibition (FIGS. 27D, 27F and 27H). […] N=4. **p<0.05, *p<0.01 compared to vehicle (open bars). […]
as §2

[4] = test system: MiaPaCa2 pancreatic cancer cell implants; experiment: Xenograft tumor volume study
[5] = test system: pS2448mTOR, pS473Akt, pY/pT-ERK2 in glioblastoma cells; experiment: Activated (phosphorylated) mTOR, Akt and ERK2 levels (immunoprecipitation, Western blotting); assay type: cell-based, human; settings: 0.1-5 nM; 4 days
Procedure: as §1, with “10A” for “11A”, “10C” for “11C”, “glioblastoma” for “melanoma”, “nM” for “nM Compound”
as §2

[6] = test system: pS2152FLNA, FLNA-associated PTEN and PP2A in melanoma cells; experiment: pS2152FLNA and FLNA-associated PTEN and PP2A in anti-FLNA immunoprecipitate (Western blotting); assay type: cell-based, human; settings: 0.1-5 nM; 4 days
Procedure: as §3, with “melanoma” for “glioblastoma”, “washed, solubilized” for “washed and solubilized,”, “scanning.” for “scan.”
as §2

In the case of `CN1CCC2(CC1)NCC(=O)N2Cc1ccccc1` [Compound C0105], the “mTOR, Akt and ERK activation (phosphorylated mTOR, Akt and ERK)” value [1] is reported as “robustly reduces mTOR, Akt and ERK activation”, the “FLNA-associated PTEN and PP2A levels” value [2] is reported as “increases FLNA-associated PTEN and PP2A levels” and the pS2152FLNA level [2] is reported as “reduces pS^2152FLNA”. The “FLNA-associated PTEN and PP2A levels” value [3] was “increases FLNA-associated PTEN and PP2A levels”, the pS2152FLNA level [3] was “reduces pS^2152FLNA” and the Tumor volume ([4]; 1 mg/kg twice daily orally for 20 days) was “arrested growth”. The Tumor volume ([4]; 10 mg/kg twice daily orally for 20 days) was “shrank tumors”, the “Vasculature of tumor masses” value ([4]; 1 or 10 mg/kg twice daily orally) was “visibly reduced the vasculature of tumor masses” and the “mTOR, Akt and ERK activation (phosphorylated mTOR, Akt and ERK)” value [5] was “robustly reduces mTOR, Akt and ERK activation”. The “FLNA-associated PTEN and PP2A levels” value [6] was “increases FLNA-associated PTEN and PP2A levels” and the pS2152FLNA level [6] was “reduces pS^2152FLNA”.
